Assay results reported in US6310095A, “Inhibitors of protein isoprenyl transferases” (University of Pittsburgh, priority 1998, dated 2001).
Counter-ions that a name gives are not always drawn.

Biological target: T1, protein farnesyltransferase (Rattus norvegicus, UniProt Q02293+Q04631)
T1 construct: Rat brain protein farnesyltransferase activity is measured; from tissue; host or cells: rat brain; purified according to Reiss et al., Cell 62:81-88 (1990), steps one through three
Assay: in vitro inhibition of protein farnesyltransferase (scintillation proximity assay, biotin-K Ras B fragment)
Format: biochemical
Conditions: at 1 × 10^-6 M
In short: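 Scintillation proximity read-out of farnesylation, using a biotinylated K Ras B fragment (0.1 mM final) in place of biotin-lamin. Enzyme purified from rat brain; results given as % inhibition.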

| SMILES | % inhibition of farnesyltransferase [%] |
| --- | --- |
| CSCC[C@H](NC(=O)c1ccc(OCCCc2ccccc2)cc1-c1ccccc1C)C(=O)[O-].[Li+] [Example 879] | 95 |
| CSCC[C@H](NC(=O)c1ccc(COCC(CC2CCCCC2)CC2CCCCC2)cc1-c1ccccc1C)C(=O)O [Example 889] | 95 |
| CSCC[C@H](NC(=O)c1cc(Cc2ccccc2)c(COCc2ccccc2)cc1-c1ccccc1C)C(=O)O [Example 923] | 78 |
| CSCC[C@H](NC(=O)c1cc(Cc2ccccc2)c(COCc2ccco2)cc1-c1ccccc1C)C(=O)O [Example 924] | 77 |
| CSCC[C@H](NC(=O)c1cc(Cc2ccccc2)c(COCCCc2ccccc2)cc1-c1ccccc1C)C(=O)O [Example 925] | 87 |

Same assay, conditions: at 1 × 10^-6 M; read-out: % inhibition of farnesyltransferase

| SMILES | inhibition at 1 µM [%] |
| --- | --- |
| CSCC[C@H](NC(=O)c1ccc(CN(Cc2cncs2)S(C)(=O)=O)cc1-c1ccccc1C)C(=O)O [Example 878, N-[4-N-(methanesulfonyl-N-thiazol-2-ylmethyl)aniinomethyl-2-(2-methylphenyl)-benzoyl]methionine] | 95 |
| CSCC[C@H](NC(=O)c1ccc(CN(C(=O)OC(C)(C)C)C(CC2CCCCC2)CC2CCCCC2)cc1-c1ccccc1C)C(=O)O [Example 886, N-[4-N-t-Butyloxycarbonyl-N-(1,3-dicyclohexylpropan-2-yl)aminomethyl-2-(2-methylphenyl)-benzoyl]methionine lithium salt] | 35 |
| CSCC[C@H](NC(=O)c1ccc(NC(=O)OCc2cncs2)cc1-c1ccccc1C)C(=O)O [Example 902, N-[4-N-(thiazol-5-ylmethoxycarbonyl)amino-2-(2-methylphenylbenzoyl]methioninelithium salt] | 85 |
| CSCC[C@H](NC(=O)c1ccc(CN(CC(C)C)C(CC2CCCCC2)CC2CCCCC2)cc1-c1ccccc1C)C(=O)O [Example 908] | 88 |
| CSCC[C@H](NC(=O)c1ccc(CN(C(=O)c2ccccc2)C(CC2CCCCC2)CC2CCCCC2)cc1-c1ccccc1C)C(=O)O [Example 910, N-[4-(N-benzoyl-N-(1,3-Dicyclohexylpropan-2-yl)aminomethyl)-2-(2-methylphenyl)-benzoyl]methionine] | 42 |
| CSCC[C@H](NC(=O)c1ccc(CN(C(CC2CCCCC2)CC2CCCCC2)S(=O)(=O)c2ccccc2)cc1-c1ccccc1C)C(=O)O [Example 911, N-[4-(N-Benzenesulfoyl-N-(1,3-Dicyclohexylpropan-2-yl)aminomethyl)-2-(2-methylphenyl)-benzoyl]methionine] | 65 |

Same assay, conditions: at 1 × 10^-7 M

| SMILES | % inhibition of farnesyltransferase [%] |
| --- | --- |
| CSCC[C@H](NC(=O)c1ccc(COCc2cnco2)cc1-c1ccccc1C)C(=O)[O-].[Li+] [Example 891] | 94 |
| CSCC[C@H](NC(=O)c1ccc(COCc2cnc(-c3cccc(Cl)c3)o2)cc1-c1ccccc1C)C(=O)[O-].[Li+] [Example 893] | 87 |
| CSCC[C@H](NC(=O)c1ccc(COCc2cnc(-c3ccc(Cl)cc3)o2)cc1-c1ccccc1C)C(=O)[O-].[Li+] [Example 894] | 89 |
| CSCC[C@H](NC(=O)c1ccc(COCc2cnc(C(C)(C)C)s2)cc1-c1ccccc1C)C(=O)[O-].[Li+] [Example 895] | 92 |
| COc1ncc(COCc2ccc(C(=O)N[C@@H](CCSC)C(=O)O)c(-c3ccccc3C)c2)s1 [Example 896] | 96 |
| CSCC[C@H](NC(=O)c1ccc(COCc2cnc(-c3ccc(F)cc3)s2)cc1-c1ccccc1C)C(=O)O [Example 900] | 95 |
| CCCC(CCC)NOCc1ccc(C(=O)N[C@@H](CCSC)C(=O)O)c(-c2ccccc2C)c1 [Example 929] | 81 |
| COc1ccccc1COCc1ccc(C(=O)N[C@@H](CCSC)C(=O)[O-])c(-c2ccccc2C)c1.[Li+] [Example 931] | 98 |

Same assay, conditions: at 1 × 10^-7 M; read-out: % inhibition of farnesyltransferase

| SMILES | inhibition at 0.1 µM [%] |
| --- | --- |
| CCSC[C@H](CC(C)C)N(C)Cc1ccc(C(=O)N[C@@H](CCSC)C(=O)O)c(-c2ccccc2C)c1 [Example 906, N-[4-(N-(1-ethylthio-4-methylpentan-2-yl)-N-methylaminomethyl)-2-(2-methylphenyl)benzoyl]-methionine] | 88 |
| CCCCN(CCCC)C(=O)CNCc1ccc(C(=O)N[C@@H](CCSC)C(=O)O)c(-c2ccccc2C)c1 [Example 912, N-[4-(N-(N,N-dibutylacetamido)aminomethyl)-2-(2-methylphenyl)benzoyl]methionine] | 85 |
| CCCCN(CCCC)C(=O)CN(C)Cc1ccc(C(=O)N[C@@H](CCSC)C(=O)O)c(-c2ccccc2C)c1 [Example 913, N-[4-(N-(N,N-dibutylacetamido)-N-methylaminomethyl)-2-(2-methylphenyl)benzoyl]methionine] | 89 |
| CSCC[C@H](NC(=O)c1ccc(CNCC(=O)N(Cc2ccccc2)Cc2ccccc2)cc1-c1ccccc1C)C(=O)O [Example 914, N-[4-(N-(N,N-dibenzylacetamido)aminomethyl)-2-(2-methylphenyl)benzoyl]methionine] | 91 |
| CCCCN(CCCC)Cc1ccc(C(=O)N[C@@H](CCSC)C(=O)O)c(-c2ccccc2C)c1 [Example 917, N-[4-(N,N-Dibutylaminomethyl)-2-(2-methylphenyl)benzoyl]methionine] | 78 |

Same assay, conditions: at 1 × 10^-8 M

| SMILES | % inhibition of farnesyltransferase [%] |
| --- | --- |
| CSCC[C@H](NC(=O)c1ccc(CO[C@H](CSC)CC2CCCCC2)cc1-c1ccccc1C)C(=O)O [Example 882] | 79 |
| CSCC[C@H](NC(=O)c1ccc(CO[C@H](CSC(C)(C)C)CC2CCCCC2)cc1-c1ccccc1C)C(=O)O [Example 883] | 91 |
| CSCC[C@H](NC(=O)c1ccc(CO[C@H](CSc2ccccc2)CC2CCCCC2)cc1-c1ccccc1C)C(=O)O [Example 884] | 94 |
| CSCC[C@H](NC(=O)c1ccc(CO[C@@H](CC2CCCCC2)CN2CCOCC2)cc1-c1ccccc1C)C(=O)O [Example 885] | 95 |
| CSCC[C@H](NC(=O)c1ccc(CON=C(Cc2ccccc2)Cc2ccccc2)cc1-c1ccccc1C)C(=O)O [Example 888] | 86 |
| CSCC[C@H](NC(=O)c1ccc(COCc2cnc(-c3ccccc3Cl)o2)cc1-c1ccccc1C)C(=O)[O-].[Li+] [Example 892] | 59 |
| CSCC[C@H](NC(=O)c1ccc(COCc2cnc(-c3ccccc3Cl)s2)cc1-c1ccccc1C)C(=O)[O-].[Li+] [Example 897] | 76 |
| CSCC[C@H](NC(=O)c1ccc(COCc2cnc(-c3cccc(F)c3)s2)cc1-c1ccccc1C)C(=O)[O-].[Li+] [Example 898] | 82 |
| CSCC[C@H](NC(=O)c1ccc(COCc2cnc(-c3cccc(Cl)c3)s2)cc1-c1ccccc1C)C(=O)[O-].[Li+] [Example 899] | 88 |
| CSCC[C@H](NC(=O)c1ccc(COCc2cnc(-c3ccc(Cl)cc3)s2)cc1-c1ccccc1C)C(=O)[O-].[Li+] [Example 901] | 84 |
| CSCC[C@H](NC(=O)c1ccc(COCc2cc(-c3ccc(Cl)cc3)co2)cc1-c1ccccc1C)C(=O)[O-].[Li+] [Example 904] | 85 |
| CSCC[C@H](NC(=O)c1ccc(COCc2ccccc2Cl)cc1-c1ccccc1C)C(=O)[O-].[Li+] [Example 930] | 66 |
| COc1cccc(COCc2ccc(C(=O)N[C@@H](CCSC)C(=O)[O-])c(-c3ccccc3C)c2)c1.[Li+] [Example 932] | 60 |

Same assay, conditions: at 1 × 10^-8 M; read-out: % inhibition of farnesyltransferase

| SMILES | inhibition at 0.01 µM [%] |
| --- | --- |
| CSCC[C@H](NC(=O)c1ccc(CN(CCC2CCCCC2)C2CC2)cc1-c1ccccc1C)C(=O)O [Example 880, N-[4-(N-2-Cyclohexylethyl-N-cyclopropylaminomethyl)-2-(2-methylphenyl)benzoyl]methionine] | 95 |
| CSCC[C@H](NC(=O)c1ccc(CN(Cc2cncs2)C2CCSCC2)cc1-c1ccccc1C)C(=O)O [Example 881] | 69 |
| CSCC[C@H](NC(=O)c1ccc(CN[C@@H](CC2CCCCC2)C(=O)N2CCCCC2)cc1-c1ccccc1C)C(=O)O [Example 887, N-[4-N-(3-Cyclohexyl-1-oxo-1-piperidin-1-ylpropan-2-yl)aminomethyl-2-(2-methylphenyl)benzoyl]-methionine lithium salt] | 92 |
| CCSC[C@H](CC(C)C)NCc1ccc(C(=O)N[C@@H](CCSC)C(=O)O)c(-c2ccccc2C)c1 [Example 905, N-[4-(N-(1-ethylthio-4-methylpentan-2-yl)aminomethyl)-2-(2-methylphenyl)benzoyl]-methionine] | 86 |
| CSCC[C@H](NC(=O)c1ccc(CN(C)C(CC2CCCCC2)CC2CCCCC2)cc1-c1ccccc1C)C(=O)O [Example 907, N-[4-(N-(1,3-Dicyclohexylpropan-2-yl)-N-methylaminomethyl)-2-(2-methylphenyl)-benzoyl]methionine] | 79 |
| CSCC[C@H](NC(=O)c1ccc(CN(C(C)=O)C(CC2CCCCC2)CC2CCCCC2)cc1-c1ccccc1C)C(=O)O [Example 909, N-[4-(N-acetyl-N-(1,3-Dicyclohexylpropan-2-yl)aminomethyl)-2-(2-methylphenyl)-benzoyl]methionine] | 79 |
| CCCCS(=O)(=O)N(CCC1CCCCC1)Cc1ccc(C(=O)N[C@@H](CCSC)C(=O)O)c(-c2ccccc2C)c1 [Example 916] | 96 |
| CCCCS(=O)(=O)N(CCCc1ccccc1)Cc1ccc(C(=O)N[C@@H](CCSC)C(=O)O)c(-c2ccccc2C)c1 [Example 927, N-[4-(N-Butanesulfonyl-N-(3-phenylpropyl)aminomethyl)-2-(2-methylphenyl)benzoyl]methionine] | 74 |
| CCCCN(CCc1ccccc1)Cc1ccc(C(=O)N[C@@H](CCSC)C(=O)O)c(-c2ccccc2C)c1 [Example 928, N-[4-(N-Butyl-N-(2-phenylethyl)aminomethyl)-2-(2-methylphenyl)benzoyl]methionine] | 84 |
